Source: US20060122147A1, “Combination preparation of hyaluronic acid and at least oe local anesthetic and the use thereof” (priority 2002, published 2006)
Like-named read-outs stand apart in the source and are kept apart here.

Conditions: 37° C., diffusion time 4 h, lidocaine 0.05% (hya 0.25% where present) in donor compartment

## CCN(CC)CC(=O)Nc1c(C)cccc1C [lidocaine]
pH 3.1
  Flux: 0.32 mg h^−1 cm^−2
pH 6.0
  Flux: 0.355 mg h^−1 cm^−2
pH 6.5
  Flux: 0.315 mg h^−1 cm^−2
pH 6.9
  Flux: 0.42 mg h^−1 cm^−2
pH 7.7
  Flux: 0.35 mg h^−1 cm^−2
pH 9.0
  Flux: 0.09 mg h^−1 cm^−2
